This series has as its system Botryococcus sp. colonies. Nature of the series: Flotation (buoyancy) of sunken colonies as visual readout of hydrocarbon content. The series is classed as cell-based. The text has this:
Previous investigations (Ohmori, et al. 1984; and Wolf, et al, 1985) verified that colonies containing greater than 20% of dry weight as botryococcenoid hydrocarbons were buoyant and that colonies containing less than 5% hydrocarbons remained sunken at the bottom of the culture vessel, providing a visual method for selecting cells with commercial-grade hydrocarbons. […] Colonies in hydrocarbon-enhancement were placed in the dark without supplemental carbon dioxide gas to eliminate artifacts of flotation from bubbles. Environmental conditions were 150 μE/m^2/sec PAR to 1700 μE/m^2/sec PAR at 25-37° Centigrade. Nutrient chemicals were reagent grade in all laboratory-scale experiments. In field-scale tests, fertilizer grade chemical nutrients were provided. In order to minimize or eliminate ammonia, nitrates were optionally kiln dried prior to admixture. Supplementation with 0.1% to 100% carbon dioxide gas or carbonate (e.g., 10 mg/ml sodium bicarbonate or potassium bicarbonate) increased hydrocarbon synthesis substantially, especially, when under the highest light intensities with soluble elements of the present invention. […]

For phosphates, for the setting “subtractive matrix analysis, most rapid in presence of soluble Mg, Mn, Fe, Zn+2”, the “total phosphate concentration that stimulated the rise of colonies to the surface” value was “greater than 80 mM”. In addition, the “state of colonies after long exposure” value (two weeks or more in 300 mM phosphate) is listed as “remained floating, but cleared to amber”.

Source of the values: patent US7923228B2, “Methods and compositions for growth of hydrocarbons in Botryococcus sp” (priority 2005, dated 2011).
